Measurements taken from patent publication US8603993B2, “Compositions and methods modulating MG29 for the treatment of diabetes” (University of Medicine and Dentistry of New Jersey, priority 2009, dated 2013).
“Also recorded” adds a separate entry of the source. Where two headings read alike, the source gives them in different places. No end group written: not given here.

Key:
[1] = patients treated with Januvia; cited from earlier work
WT muscle fibers = experiment: Osmotic shock-induced Ca2+ sparks in isolated FDB muscle fibers (confocal imaging); assay type: cell-based, mouse; settings: GLP1 treatment
Description: (§1) The Ca spark response in skeletal muscle is compromised in mg29−/− and diabetic muscle. […] Considering that we see a similar functional phenotype with glucose handling between the mg29−/− animal and diabetic patients, we tested if the we would see similar defects in Ca signaling as well. Ca spark measurement is performed in 13-16 weeks old control wild type, type I diabetic mice (akita) or type II diabetic mice (db/db). Non-fasted serum glucose levels are recorded from blood samples taken from the tail vein immediately before sacrificing the mice. Following an established protocol in our laboratory, we measured Ca sparks in muscle fibers isolated from the flexor digitorum brevis (FDB). We observed no increase in the frequency of spontaneous resting Ca sparks in db/db muscle fibers (data not shown). […] The degree that the spark frequency decreased could be directly correlated with the blood glucose level of the animal, with more diabetic animals displaying less sparks than those animals with lower blood glucose levels (FIG. 9b).
(§2) FDB skeletal muscle fiber isolation. Mice were sacrificed by cervical dislocation and hind limbs were surgically removed and placed into Isotonic Tyrode with measured osmolarity of 290 mOsm. Flexor Digitorum Brevis (FDB) muscles were excised and transferred into Tyrode supplemented with 0.2% type I collagenase (Sigma C-0310), for 90 minutes at 37° C. Muscle fibers were gently dissociated by several passages through a small diameter pipette. Isolated FDB muscle fibers were plated onto a ΔTC glass-bottomed dishes (Bioptech Inc.) in 1 ml of Tyrode buffer.
(§3) Confocal Ca^2+ imaging and spark analysis. Following individual muscle fiber isolation, the fibers were plated onto a dish containing isotonic tyrode solution (290 mOsm). 10 μM Fluo4-AM, a membrane permeable cytosolic Ca^2+ indicator dye is loaded onto the dish and left incubated for 60 minutes in room temperature along with different drug treatment. Replacing 50% of the dish volume with isotonic Tyrode for three times washed excess dye from the dish. Using brightfield confocal microscopy, fibers were then be screened by light microscopy for intact sarcolemmal membranes and regular striation patterns. Muscle fibers that fulfill these criteria were bathed in the isotonic solution, a physiological resting condition. Measurement of SR Ca^2+ release was performed on a BioRad Radiance-2100 confocal microscope equipped with Argon laser ([…]), Helium-Neon laser (632 nm), and a 40×, 1.3 NA oil immersion objective. An acquisition rate of 2 ms perline was used for line scan imaging, while serial x-y images were acquired at 3.08 s per frame (512×512 pixels). Osmotic shock to disrupt the juxtaposition of membrane coupling was applied to analyze whether knockdown of Bin1 alters the Ca^2+ sparks activity. Initially, fiber was perfused with isotonic solution for 30 seconds prior to applying hypotonic Tyrode solution (170 mOsm) for 1 minute that induces membrane swelling. […] For each animal, 3-4 fibers were treated by osmotic shock, and from each fiber 2 images (comprised of 30000 2 ms linescans of 512 pixels) were recorded. Image analysis and normalization of linescan intensities to the calculated resting fluorescence (F0) and determination of the amplitude and duration of individual events was performed using custom routines for IDL software. […]
(§4) Solutions. […] 5 CaCl2, 2 MgCl2 and 10 HEPES (ph 7.2), with measured osmolality of 290 mOsm. […]

db/db muscle fibers = experiment: as above; assay type: cell-based, mouse
Description: as §1, §2, §3, §4

[2] = system: extensor digitorum longus (EDL) of non-fasted db/db mice; experiment: Ex vivo contractility assay, force recovery after fatigue; parameters: species or system mouse
Description: Application of GLP1 can improve contractility in skeletal muscle from diabetic mice. […] This leads us to test whether the increased Ca sparks activity can be translated as increased muscle force as measured by ex vivo contractility assays. The extensor digitorum longus (EDL) of non-fasted db/db mice is mounted to a force transducer and electrically stimulated following the protocol shown in FIG. 11. A 10 fold higher dose of GLP1 (100 nM) used in the Ca^2+ spark experiments is applied to the contractility study, to take into account the increased mass of the anatomical muscle over the isolated muscle fiber. Muscles were tested for their maximum force (Tmax) produced at various frequencies and then fatigued using rapid pulses of an electric field, which was then followed by another measurement of Tmax. Following 1 hour of GLP1 application, this stimulation protocol was repeated on the same muscles (FIG. 11a). Calculating the ratio of Tmax before and after GLP1 application will show how the application of GLP1 can influence the recovery of muscle function following fatigue.
Intact EDL and soleus muscle isolation. Intact EDL and soleus muscles were dissected from mice and maintained in Isotonic Tyrode solution supplemented with 12 mM glucose, continuously bubbled with 100% O2. […] Muscles were mounted vertically on a glass-stimulating apparatus (Radnoti) with platinum electrodes and attached to a movable isometric force transducer and to a stationary anchor, which allowed muscles to be stretched until both maximal forces for a given frequency and the frequency producing Tmax were obtained.
Force measurements during fatigue. A Powerlab computer-interface program (ADInstruments) was used to control the electrical stimulation protocols and to record, digitize and store force output data. […] Forces were normalized into gram after calibration and all data were analyzed by Origin software (OriginLab). […]
as §4

rat's soleus muscle = settings: rat soleus incubated with GLP1; cited from earlier work
[3] = Insulin challenge, blood glucose after bolus IP injection; assay type: in vivo, mouse; settings: IP injection of insulin
Description: FIG. 6. Mice null for MG29 (mg29−/−) display compromised response to insulin challenge. Fasting blood glucose levels were measured in mice following a bolus IP injection of insulin at time 0 on chart. […] Mean±SEM is shown. ANOVA is used for analysis with **: P<0.01;***P<0.001.

Molecule: N[C@@H](CC(=O)N1CCn2c(nnc2C(F)(F)F)C1)Cc1cc(F)c(F)cc1F [Januvia, Sitagliptin]
- blood glucose [1]: normalization

Molecule: GLP1 7-36 Amide (HAEGTFTSDVSSYLEGQAAKEFIAWLVKGR-NH2; UniProt P01275 98-127, looked up) [Glucagon like peptide 1 (GLP1) of pro-glucagon origin is a type of incretin hormone; obtained from Sigma]
- peripheral subsarcolemmal distribution of Ca2+ sparks (WT muscle fibers; WT fibers): does not alter
- Ca2+ spark frequency (WT muscle fibers; WT muscle): minimal increases
- Ca2+ spark events / frequency (db/db muscle fibers; db/db FDB fibers after osmotic shock, GLP1 10 nM for 1 hour): significantly improves; also recorded: can be reversed; also recorded: significant increased
- peripheral subsarcolemmal distribution of Ca2+ sparks (db/db muscle fibers; db/db fibers, GLP1 treatment): does not alter
- GLP1 effect on Ca2+ sparks by blood glucose group (db/db muscle fibers; db/db mice, high blood glucose >330 mg/dL vs lower blood glucose <260 mg/dL): maximum activity on db/db mice that exhibit high hyperglycemia condition
- twitch ratio ([2]; after GLP1 treatment, 100 nM): no significant change
- Tmax recovery ratio (maximal force after fatigue to before fatigue) ([2]; db/db EDL, 100 nM GLP1 for 1 h): back to the levels seen in the WT muscles; also recorded: improves muscle force
- force frequency relationship ([2]; db/db muscle, 100 nM GLP1): did not significantly alter
- PKB activity (rat's soleus muscle): increased
- glycogen synthase activity (rat's soleus muscle): increased

Molecule: insulin
- blood glucose level ([3]; mg29-/- mice): much less effect
- blood glucose ([3]; wild type control animals): significant decrease
